Results: patent publication US20150190369A1, “QUERCETIN-3-GLUCOSIDE AND USES THEREOF” (priority 2012, published 2015)

Tests used:
[1] = test system: SREBP-2 mRNA; test: Quantitative RT-PCR for proSREBP-2 mRNA in Huh7 cells; format: cell-based, human; conditions: Huh7, 24 h, 5 μM Q3G
Description: FIGS. 9A and 9B are graphs illustrating the proSREBPs-2 mRNA and SREBP-2-related protein levels for cells exposed to Q3G. Cells were incubated for 24 h in medium 5 μM Q3G. FIG. 9A illustrates the results for quantitative RT-PCR for proSREBPs-2 mRNA levels. Values are the means of triplicate experiments±SEM. FIG. 9B illustrates the results for semi-quantitative immunoblotting for cellular SREBP-2-related protein. Mat/Prec values, the averages of two experiments, represent density ratios of the 65-kDa SREBP over the 158-kDa proSREBPs after normalization for β-actin.
At passage, Huh7 cells were routinely seeded at sub-confluence (˜10^6 cells/10-cm dish) in Dulbecco's modified Eagle's medium (DMEM) containing 10% fetal bovine serum (FBS) or LPDS (for experiments) and 50 μg/ml gentamycin. They were incubated overnight at 37° C., in a humidified 5% CO2-95% air atmosphere. Cells were treated or not with Q3G at defined concentrations and for defined lengths of time. Media were collected and centrifuged at 200 g for 5 min to sediment suspended cells; supernatants were collected and supplemented with 0.33 volumes of a 3×-concentrated PIC. […]
Standard curves were established using varying amounts of purified and quantified cDNA amplicons of each mRNA. […]

[2] = test system: ABCG1 mRNA; test: qRT-PCR for ABCG1 mRNA in MIN6 β-cells; format: cell-based, mouse; conditions: MIN6, 24 h
Description: (§1) Mouse insulinoma MIN6 cells were cultured in a 5% CO2-95% air atmosphere at 37° C. in DMEM medium containing 10% heat-inactivated fetal bovine serum, 1 mM Na-pyruvate, 2 mM L-glutamine, 25 mM D-glucose, and 28 μM β-mercaptoethanol. Q3G at a specific final concentration was supplemented to the culture medium and incubation was conducted for a selected length of time. Media were collected, spun at 600 g to sediment suspended cells, supplemented with 0.5 volumes of 3×RIPA-PIC (1×: 50 mM Tris-HCl, pH 8, 150 mM NaCl, 1% NP-40, 0.5% Na-deoxycholate and 0.1% SDS and PIC). Cells were lysed in 1×RIPA-PIC for immuno-blotting, or in RNA extraction buffer for qRT-PCR.
For the mouse studies, the levels of specific mRNAs were quantified in a PCR-based fluorogenic assay using the Taqman technology (Holland et al., 1991). Briefly, total RNA was extracted using the RNeasy extraction kit and reverse-transcribed into cDNA using random hexameric primers and the Superscript II RNase H-Reverse Transcriptase. […] Standard curves were established using varying amounts of pre-quantified amplicons of each transcript. […]
(§2) MIN6 β-cells were incubated for 24 h in the presence of different concentrations of Q3G. Total RNA was extracted and analyzed by qRT-PCR for the levels of mRNA for PCSK9, LDLR, ABCA1 and ABCG1.

[3] = test system: PCSK9 mRNA; test: qRT-PCR for PCSK9 mRNA in MIN6 β-cells; format: cell-based, mouse; design: increase in PCSK9 mRNA: dose or concentration left out as unconfirmed; conditions: MIN6, 24 h
Description: as §1
For the mouse studies, the levels of specific mRNAs were quantified in a PCR-based fluorogenic assay using the Taqman technology (Holland et al., 1991). Briefly, total RNA was extracted using the RNeasy extraction kit and reverse-transcribed into cDNA using random hexameric primers and the Superscript II RNase H-Reverse Transcriptase. The cDNA was used as a template to produce PCR amplicons using FastStart TaqMan ProbeMaster-Rox master mix, primer pairs and the appropriate fluorescent probes) in the Stratagene Mx3005P thermocycler. Standard curves were established using varying amounts of pre-quantified amplicons of each transcript. The level of mRNA for the TATA-box binding protein (TBP) was used for normalization.
as §2

[4] = test system: LDLR; test: Immunofluorescence flow cytometry of cell surface LDLR on Huh7 cells; format: cell-based, human; conditions: Huh7 pretreated 24 h with 5 μM Q3G versus untreated
Description: Cells were seeded at 4×10^4 cell/10-cm dish in 3 ml of completed medium and incubated overnight. LPDS medium containing or not 5 μM Q3G was substituted and incubation resumed for 24 h. Subsequent steps were conducted with ice-cold solutions and at 4° C. Cell monolayers were rinsed with PBS, overlaid with PBS containing rabbit anti-LDLR antibody for 1 h, then with PBS containing Alexa Fluor-488-conjugated goat anti-rabbit Ig antibody for another 1 h. After a PBS rinse, the cells were overlaid with Versene, suspended in DMEM and analyzed in Benson-Dickenson XL flow cytometer at 492 nm and 520 nm excitation and emission wavelengths, respectively. Cell autofluorescence and non-specific fluorescence were assessed using cells not treated with the secondary and the primary antibody, respectively.
To be functionally relevant, Q3G-induced LDLR should accumulate at the cell surface of the hepatocyte cells where it could mediate LDL uptake. To verify the surface localization of the receptor, untreated and pretreated intact Huh7 cells were stained at 4° C. for LDLR by indirect immunofluorescence, and analyzed by fluorescence flow cytometry.

## O=c1c(O[C@@H]2O[C@H](CO)[C@@H](O)[C@H](O)[C@H]2O)c(-c2ccc(O)c(O)c2)oc2cc(O)cc(O)c12 [Q3G, quercetin-3-O-β-D-glucoside]
[1]
  effect on level of SREBP-2 mRNA: no effect
[2]; Q3G 8 mM and above
  effect on ABCG1 mRNA levels: reducing
[2]; Q3G up to 4 mM
  increase of ABCG1 mRNA levels: about 50%
[3]; Q3G 8 mM and above
  effect on PCSK9 mRNA levels: increased
[3]; Q3G up to 4 mM
  effect on PCSK9 mRNA levels: does not affect
[3]; maximum Q3G concentration used
  increase in PCSK9 mRNA: 2.5 fold
[4]
  increase of LDLR cell surface density: 1.7 fold
